pEC50: −log10 of the molar value. Read-outs that look alike come from different tables or passages of the source.
Tests used:
Assay type in all cases: cell-based
[1] = biological target: T1, HEK-EBNA cells expressing a PG EP2 receptor subtype (Homo sapiens, UniProt P43116); experiment: cAMP assay, EP2
T1 construct: expressed in transfected cells; host or cells: HEK-EBNA
Procedure: A 384-well drug plate was prepared to contain 6 test compounds, PGE2 and cAMP in 16 serial dilutions in triplicate, using a Biomek station. HEK-EBNA cells expressing a target PG receptor subtype (EP2 or EP4) were suspended in a stimulation buffer (HBSS, 0.1% BSA, 0.5 mM IBMX and 5 mM HEPES, pH 7.4) in a density of 10^4 cells/5 μl. The reaction was initiated by mixing 5 μL drug dilutions with 5 μl of HEK-EBNA cells in a well, carried out for 30 min at room temperature, and followed by the addition of 5 μl anti-cAMP acceptor beads in the control buffer with Tween-20 (25 mM NaCl, 0.03% Tween-20, 5 mM HEPES, pH7.4). After 30 min in the dark at room temperature, the mixtures were incubated with 15 μl biotinylated-cAMP/strepavidin donor beads in Lysis/Detection buffer (0.1% BSA, 0.3% Tween-20 and 5 mM HEPES, pH7.4) for 45 min at the room temperature. Fluorescence changes were read using a Fusion-alpha HT microplate reader.

hEP2/Gqs5 = biological target: T2, hEP2/Gqs5 (Homo sapiens, UniProt P43116); experiment: FLIPR calcium signal, hEP2
T2 construct: expressed in transfected cells; host or cells: HEK-293(EBNA)
T2 sequence (P43116 whole entry): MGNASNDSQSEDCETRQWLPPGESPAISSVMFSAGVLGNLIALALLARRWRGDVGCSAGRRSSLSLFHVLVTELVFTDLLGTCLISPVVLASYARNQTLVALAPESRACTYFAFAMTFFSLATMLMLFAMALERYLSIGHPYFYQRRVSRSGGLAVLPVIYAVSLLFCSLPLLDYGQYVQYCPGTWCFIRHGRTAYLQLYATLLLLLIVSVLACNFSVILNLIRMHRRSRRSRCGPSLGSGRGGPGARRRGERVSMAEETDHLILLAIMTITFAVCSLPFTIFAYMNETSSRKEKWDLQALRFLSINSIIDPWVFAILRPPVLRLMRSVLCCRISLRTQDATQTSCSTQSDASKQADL
Outline: (§1)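 HEK-293(EBNA) cells stably expressing the recombinant human receptor were loaded with 2 μM Fluo-4 AM for 45 min and read on FLIPR at 37° C in HBSS-HEPES pH 7.4. Peak fluorescence rise was expressed relative to buffer and standard agonist controls (BW245C, PGE2 or U-46619 by receptor); compounds were run 10^−5 to 10^−11 M in duplicate, n≧3.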

hDP/Gqs5 = biological target: T3, hDP/Gqs5 (Homo sapiens, UniProt Q13258); experiment: FLIPR calcium signal, hDP; details: read-out: Other Receptors EC50 hDP
T3 construct: expressed in transfected cells; host or cells: HEK-293(EBNA)
T3 sequence (Q13258 1-359): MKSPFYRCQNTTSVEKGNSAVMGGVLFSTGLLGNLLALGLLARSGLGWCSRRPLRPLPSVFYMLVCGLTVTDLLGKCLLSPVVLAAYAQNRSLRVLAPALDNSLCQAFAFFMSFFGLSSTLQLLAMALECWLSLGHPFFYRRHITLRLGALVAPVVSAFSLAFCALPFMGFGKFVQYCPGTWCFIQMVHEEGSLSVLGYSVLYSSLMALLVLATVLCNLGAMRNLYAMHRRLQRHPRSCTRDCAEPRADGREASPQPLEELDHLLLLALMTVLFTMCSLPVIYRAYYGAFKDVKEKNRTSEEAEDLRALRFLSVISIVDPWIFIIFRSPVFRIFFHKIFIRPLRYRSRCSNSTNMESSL
Outline: as §1

hIP = biological target: T4, hIP (Homo sapiens, UniProt P43119); experiment: FLIPR calcium signal, hIP; details: for pEC50: read-out: Other Receptors EC50 hIP
T4 construct: expressed in transfected cells; host or cells: HEK-293(EBNA)
T4 sequence (P43119 whole entry): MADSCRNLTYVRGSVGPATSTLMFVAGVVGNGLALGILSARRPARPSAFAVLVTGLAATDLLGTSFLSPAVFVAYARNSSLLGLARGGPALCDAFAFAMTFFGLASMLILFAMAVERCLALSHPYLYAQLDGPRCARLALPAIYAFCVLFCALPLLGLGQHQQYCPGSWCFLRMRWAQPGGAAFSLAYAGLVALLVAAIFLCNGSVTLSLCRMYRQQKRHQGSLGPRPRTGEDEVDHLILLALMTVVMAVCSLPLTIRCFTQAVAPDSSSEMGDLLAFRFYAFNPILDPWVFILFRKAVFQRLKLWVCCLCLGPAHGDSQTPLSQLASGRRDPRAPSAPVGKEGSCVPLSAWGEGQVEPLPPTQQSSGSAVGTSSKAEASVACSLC
Procedure: (§2) HEK-293(EBNA) cells, stably expressing one type or subtype of recombinant human prostaglandin receptors (prostaglandin receptors expressed: hDP/Gqs5; hEP1; hEP2/Gqs5; hEP3A/Gqi5; hEP4/Gqs5; hFP; hIP; hTP), were cultured in 100 mm culture dishes in high-glucose DMEM medium containing 10% fetal bovine serum, 2 mM 1-glutamine, 250 μg/ml geneticin (G418) and 200 μg/ml hygromycin B as selection markers, and 100 units/ml penicillin G, 100 μg/ml streptomycin and 0.25 μg/ml amphotericin B. • (b) Calcium Signal Studies on the FLIPR™
(§3) Cells were seeded at a density of 5×10^4 cells per well in Biocoat® Poly-D-lysine-coated black-wall, clear-bottom 96-well plates (Becton-Dickinson) and allowed to attach overnight in an incubator at 37° C. Cells were then washed two times with HBSS-HEPES buffer (Hanks Balanced Salt Solution without bicarbonate and phenol red, 20 mM HEPES, pH 7.4) using a Denley Cellwash plate washer (Labsystems). After 45 minutes of dye-loading in the dark, using the calcium-sensitive dye Fluo-4 AM at a final concentration of 2 μM, plates were washed four times with HBSS-HEPES buffer to remove excess dye leaving 100 μl in each well. Plates were re-equilibrated to 37° C. for a few minutes.
(§4) Cells were excited with an Argon laser at 488 nm, and emission was measured through a 510-570 nm bandwidth emission filter (FLIPR™, Molecular Devices, Sunnyvale, Calif.). Drug solution was added in a 50 μl volume to each well to give the desired final concentration. The peak increase in fluorescence intensity was recorded for each well. On each plate, four wells each served as negative (HBSS-HEPES buffer) and positive controls (standard agonists: BW245C (hDP); PGE2 (hEP1; hEP2/Gqs5; hEP3A/Gqi5; hEP4/Gqs5); PGF2α (hFP); carbacyclin (hIP); U-46619 (hTP), depending on receptor). The peak fluorescence change in each drug-containing well was then expressed relative to the controls.
(§5) Compounds were tested in a high-throughput (HTS) or concentration-response (CoRe) format. In the HTS format, forty-four compounds per plate were examined in duplicates at a concentration of 10^−5 M. To generate concentration-response curves, four compounds per plate were tested in duplicates in a concentration range between 10^−5 and 10^−11 M. The duplicate values were averaged. In either, HTS or CoRe format each compound was tested on at least 3 separate plates using cells from different passages to give an n≧3.

hEP4/Gqs5 = biological target: T5, hEP4/Gqs5 (Homo sapiens, UniProt P35408); experiment: FLIPR calcium signal, hEP4; details: for pEC50: unit inferred, read-out: EP4 data flipr EC50
T5 construct: expressed in transfected cells; host or cells: HEK-293(EBNA)
T5 sequence (P35408 whole entry): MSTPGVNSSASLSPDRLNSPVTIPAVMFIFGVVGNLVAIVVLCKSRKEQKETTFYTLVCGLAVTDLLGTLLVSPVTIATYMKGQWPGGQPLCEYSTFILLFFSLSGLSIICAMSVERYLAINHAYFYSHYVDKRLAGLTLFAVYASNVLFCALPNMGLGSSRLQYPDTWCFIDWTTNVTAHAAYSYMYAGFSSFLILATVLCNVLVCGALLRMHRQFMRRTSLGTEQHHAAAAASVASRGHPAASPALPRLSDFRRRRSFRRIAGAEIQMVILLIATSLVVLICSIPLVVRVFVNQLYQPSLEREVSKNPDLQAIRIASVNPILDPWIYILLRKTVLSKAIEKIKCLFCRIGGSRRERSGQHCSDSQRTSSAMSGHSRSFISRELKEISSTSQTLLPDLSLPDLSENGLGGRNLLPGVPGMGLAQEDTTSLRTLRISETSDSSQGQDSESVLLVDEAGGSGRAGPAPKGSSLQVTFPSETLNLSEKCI
Outline: as §1

hEP1 = biological target: T6, hEP1 (Homo sapiens, UniProt P34995); experiment: FLIPR calcium signal, hEP1; details: for pEC50: read-out: Other Receptors EC50 hEP1
T6 construct: expressed in transfected cells; host or cells: HEK-293(EBNA)
T6 sequence (P34995 1-402): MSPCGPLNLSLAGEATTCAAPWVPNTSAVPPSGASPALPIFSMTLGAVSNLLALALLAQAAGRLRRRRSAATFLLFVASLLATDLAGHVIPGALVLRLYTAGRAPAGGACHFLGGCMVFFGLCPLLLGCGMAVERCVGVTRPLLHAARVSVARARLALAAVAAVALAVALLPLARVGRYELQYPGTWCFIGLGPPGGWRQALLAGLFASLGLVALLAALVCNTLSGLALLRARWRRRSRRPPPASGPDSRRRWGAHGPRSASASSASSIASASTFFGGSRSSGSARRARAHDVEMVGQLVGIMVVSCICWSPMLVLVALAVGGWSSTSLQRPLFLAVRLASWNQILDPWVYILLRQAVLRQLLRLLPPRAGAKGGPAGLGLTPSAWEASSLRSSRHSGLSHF
Procedure: as §2, §3, §4, §5

[2] = unit inferred, read-out: EP2 data cAMP EC50
[3] = unit inferred, other columns of the table in nM, read-out: EP2 data flipr EC50

T1 sequence (P43116 whole entry): as the sequence (P43116 whole entry) above

Structure (SMILES)	pEC50 [1, 2]	EC50 (hEP2/Gqs5; [3]) [nM]	pEC50 (hDP/Gqs5)	pEC50 (hIP)	pEC50 (hEP4/Gqs5)	pEC50 (hEP1)	pEC50 ([1]; Table 3, third part, value in parentheses, read-out: EP2 EC50 in a cAMP mediated assay)	Ca2+ Signal-EC50 (nM) EP4 (hEP4/Gqs5; Table 3, third part)	EC50 (hEP2/Gqs5; Table 3, third part, value outside parentheses, read-out: Ca2+ Signal-EC50 (nM) EP2) [nM]	Ca2+ Signal-EC50 (nM) EP1 (hEP1; Table 3, third part)	Ca2+ Signal-EC50 (nM) IP (hIP; Table 3, third part)
CCCCCCC(O)c1ccc(N2C(=O)CC[C@@H]2CCCc2ccc(C(=O)O)s2)cc1 (single isomer, unassigned) [drawing 156]	9.22	5	6.97	< 5.00							
CCCCCC(O)c1ccc(N2C(=O)CC[C@@H]2CCCc2ccc(C(=O)O)s2)cc1 (some centres unmarked) [drawing 173]	9.26	5	5.91								
CCCCCC(=O)c1ccc(N2C(=O)CC[C@@H]2CCCc2ccc(C(=O)O)s2)cc1	8.80	16	5.11		< 5.00						
CCCCCCC(O)c1ccc(N2C(=O)CC[C@@H]2CCCc2ccc(C(=O)O)s2)cc1 (single isomer, unassigned) [drawing 155]	8.85		7.43			5.16					
CCCCCC(O)c1ccc(N2C(=O)CC[C@@H]2COCc2ccc(C(=O)O)s2)cc1 (single isomer, unassigned) [drawing 176]	8.30	62	5.11		< 5.00						
CCCCCC(O)c1ccc(N2C(=O)CC[C@@H]2CCCc2ccc(C(=O)O)s2)cc1 (single isomer, unassigned) [drawing 151]	9.82	1.6	6.53		< 5.00						
CCCCCC(C)c1ccc([C@@H]2[C@@H](C/C=C\CCCC(=O)O)[C@H](C#N)C[C@H]2C)cc1 (some centres unmarked)							8.40	not active	34	not active	not active
CC(C)(C)c1ccc(N2C(=O)CC[C@@H]2COCc2ccc(C(=O)O)o2)cc1	7.55	442	5.72		< 5.00						
CCCCCC(O)c1ccc(N2C(=O)CC[C@@H]2COCc2ccc(C(=O)O)s2)cc1 (single isomer, unassigned) [drawing 148]	8.30	62	5.11		< 5.00						
CC(C)(C)c1ccc(N2C(=O)CC[C@@H]2COCc2ccc(C(=O)O)s2)cc1	7.29	1340	5.63		< 5.00	< 5.00					
CCCCCC(O)c1ccc(N2C(=O)CC[C@@H]2CCCc2ccc(C(=O)O)s2)cc1 (some centres unmarked) [drawing 145]	9.26	5	5.91								
CC(C)(C)c1ccc(N2C(=O)CC[C@@H]2CCCCCCC(=O)O)cc1	6.26	4120	< 5.00		< 5.00	< 5.00					
CCCCCCC(O)c1ccc(N2C(=O)CC[C@@H]2COCc2ccc(C(=O)O)s2)cc1 (single isomer, unassigned) [drawing 152]	8.15	134	5.17								

More lines, now with the values ahead:

pEC50 [1, 2]	EC50 (hEP2/Gqs5; [3]) [nM]	pEC50 (hDP/Gqs5)	pEC50 (hIP)	pEC50 (hEP4/Gqs5)	pEC50 (hEP1)	pEC50 ([1]; Table 3, third part, value in parentheses, read-out: EP2 EC50 in a cAMP mediated assay)	Ca2+ Signal-EC50 (nM) EP4 (hEP4/Gqs5; Table 3, third part)	EC50 (hEP2/Gqs5; Table 3, third part, value outside parentheses, read-out: Ca2+ Signal-EC50 (nM) EP2) [nM]	Ca2+ Signal-EC50 (nM) EP1 (hEP1; Table 3, third part)	Ca2+ Signal-EC50 (nM) IP (hIP; Table 3, third part)	Structure (SMILES)
9.82	1.6	6.53		< 5.00							CCCCCC(O)c1ccc(N2C(=O)CC[C@@H]2CCCc2ccc(C(=O)O)s2)cc1 (single isomer, unassigned) [drawing 179]
8.85	16	7.43			5.16						CCCCCCC(O)c1ccc(N2C(=O)CC[C@@H]2CCCc2ccc(C(=O)O)s2)cc1 (single isomer, unassigned) [drawing 183]
9.22	5	6.97	< 5.00								CCCCCCC(O)c1ccc(N2C(=O)CC[C@@H]2CCCc2ccc(C(=O)O)s2)cc1 (single isomer, unassigned) [drawing 184]
8.82	15	5.17		< 5.00							CCCCCC(O)c1ccc(N2C(=O)CC[C@@H]2COCc2ccc(C(=O)O)s2)cc1 (single isomer, unassigned) [drawing 177]
9.72	6	6.09		< 5.00							CCCCCC(O)c1ccc(N2C(=O)CC[C@@H]2CCCc2ccc(C(=O)O)s2)cc1 (single isomer, unassigned) [drawing 178]
8.15	134	5.17									CCCCCC(O)c1ccc(N2C(=O)CC[C@@H]2CCCc2ccc(C(=O)O)s2)cc1 (single isomer, unassigned) [drawing 180]

From US7799821B2, “Therapeutic compounds” (Allergan, Inc., priority 2004, dated 2010)
